{"source": "paper PMC13352219", "about": "“Analysis of glutamine synthetase target‐site mutations and their role in endowing glufosinate‐ammonium resistance” (Pest Management Science, 2026)", "key": {"[1]": {"tested_on": "Amaranthus palmeri cytosolic GS1.1 R291G", "experiment": "GS enzyme inhibition assay, GS1.1 R291G", "type": "biochemical", "method": "(§1) GS activity was determined spectrophotometrically following the Sigma‐Aldrich enzymatic assay protocol. The reaction couples the ATP‐dependent conversion of L‐glutamate and ammonium to L‐glutamine with pyruvate kinase (PK) and L‐lactate dehydrogenase (LDH), such that oxidation of β‐NADH to β‐NAD^+ can be monitored at 340 nm. Recombinant GS from A. palmeri was expressed in E. coli, purified by affinity chromatography, and quantified by the Bradford method using bovine serum albumin as standard. […] Reaction mixtures were equilibrated to 37°C and initiated by the addition of enzyme, and the decrease in absorbance at 340 nm was recorded for 5–10 min; only the linear portion of the curve was used for activity calculations. […] Activity was calculated using an extinction coefficient for NADH of 6.22 mM^−1 cm^−1 and expressed as units per mg protein, where one unit corresponds to the formation of 1 μmol of L‐glutamine in […] at pH 7.1 and 37 °C. […] Percent inhibition was calculated relative to untreated (positive) and no‐enzyme (negative) controls. […] Resistance factors were calculated by dividing the IC₅₀ of each mutant variant by that of wild‐type GS."}, "[2]": {"tested_on": "Arabidopsis thaliana plants expressing Arabidopsis GS2.2 G254D", "experiment": "Postemergence GFA spray on transgenic Arabidopsis expressing GS2.2 G254D", "type": "in vivo", "details": "transgenic Arabidopsis expressing Arabidopsis GS2.2 G254D; 100, 500 and 1000 g ha^−1 postemergence; listed as GFA", "excerpt": "Mutant GS variants G2.2 G255D from A. palmeri and G254D from Arabidopsis were cloned into the RTP6557 transformation vector, which was subsequently introduced into Agrobacterium tumefaciens strain C58C1pMP90. The construct also carried an acetolactate synthase (ALS) herbicide‐resistance gene as a selectable marker, ensuring that Arabidopsis seedlings tested for resistance to GFA herbicide expressed the transgene.\nArabidopsis plants carrying immature floral buds were transformed by the floral‐dip method, immersing inflorescences for 10 s in the bacterial suspension supplemented with Silwet‐L77 at 0.05% v/v. After dipping, plants were maintained overnight under high humidity and low light, then transferred to long‐day conditions until maturity. Once siliques had yellowed, seeds were harvested into paper bags. T₁ seeds were collected, placed into Falcon tubes, and stored at 4 °C.\nAfter ≥14 d of cold storage, T₁ seeds were sown and stratified as previously described. Transgenic plants were confirmed by PCR detection of the AHAS resistance marker gene. […]\nHerbicide treatments were applied at the 10‐leaf stage using a spray chamber calibrated to deliver 375 L ha^−1 of spray solution. […] Herbicide efficacy was visually evaluated 7 d after application."}, "[3]": {"tested_on": "Amaranthus palmeri cytosolic GS1.1 R291H", "experiment": "GS enzyme inhibition assay, GS1.1 R291H", "type": "biochemical", "method": "as §1"}, "[4]": {"tested_on": "Amaranthus palmeri cytosolic GS1.1 R38E", "experiment": "GS enzyme inhibition assay, GS1.1 R38E", "type": "biochemical", "method": "as §1"}, "[5]": {"tested_on": "Amaranthus palmeri cytosolic GS1.1 A163Y", "experiment": "GS enzyme inhibition assay, GS1.1 A163Y", "type": "biochemical", "method": "as §1"}, "[6]": {"tested_on": "Amaranthus palmeri cytosolic GS1.1 G155F", "experiment": "GS enzyme inhibition assay, GS1.1 G155F", "type": "biochemical", "method": "as §1"}, "[7]": {"tested_on": "Amaranthus palmeri cytosolic GS1.1 K165S", "experiment": "GS enzyme inhibition assay, GS1.1 K165S", "type": "biochemical", "method": "as §1"}, "[8]": {"tested_on": "Amaranthus palmeri cytosolic GS1.1 E131K", "experiment": "GS enzyme inhibition assay, GS1.1 E131K", "type": "biochemical", "method": "as §1"}, "[9]": {"tested_on": "Amaranthus palmeri cytosolic GS1.1 V193T", "experiment": "GS enzyme inhibition assay, GS1.1 V193T", "type": "biochemical", "method": "as §1"}, "[10]": {"tested_on": "Amaranthus palmeri cytosolic GS1.1 G245C", "experiment": "GS enzyme inhibition assay, GS1.1 G245C", "type": "biochemical", "method": "as §1"}, "[11]": {"target": "Eleusine indica GS1.1 S59G", "experiment": "GS enzyme inhibition assay, ELEIN GS1.1 S59G", "type": "biochemical"}, "[12]": {"tested_on": "Amaranthus palmeri cytosolic GS1.1 E192D", "experiment": "GS enzyme inhibition assay, GS1.1 E192D", "type": "biochemical", "method": "as §1"}, "[13]": {"tested_on": "Amaranthus palmeri cytosolic GS1.1 E192K", "experiment": "GS enzyme inhibition assay, GS1.1 E192K", "type": "biochemical", "method": "as §1"}, "[14]": {"tested_on": "Amaranthus palmeri cytosolic GS1.1 S58M", "experiment": "GS enzyme inhibition assay, GS1.1 S58M", "type": "biochemical", "method": "as §1"}, "[15]": {"tested_on": "Amaranthus palmeri cytosolic GS1.1 Y158A", "experiment": "GS enzyme inhibition assay, GS1.1 Y158A", "type": "biochemical", "method": "as §1"}, "[16]": {"tested_on": "Amaranthus palmeri cytosolic GS1.1 G245S", "experiment": "GS enzyme inhibition assay, GS1.1 G245S", "type": "biochemical", "method": "as §1"}, "[17]": {"tested_on": "Amaranthus palmeri cytosolic GS1.1 A309Y", "experiment": "GS enzyme inhibition assay, GS1.1 A309Y", "type": "biochemical", "method": "as §1"}, "[18]": {"tested_on": "Amaranthus palmeri cytosolic GS1.1 E297S", "experiment": "GS enzyme inhibition assay, GS1.1 E297S", "type": "biochemical", "details": "IC50 variant / IC50 WT", "method": "as §1"}, "[19]": {"tested_on": "Amaranthus palmeri cytosolic GS1.1 K36A", "experiment": "GS enzyme inhibition assay, GS1.1 K36A", "type": "biochemical", "method": "as §1"}, "[20]": {"tested_on": "Amaranthus palmeri cytosolic GS1.1 Y158T", "experiment": "GS enzyme inhibition assay, GS1.1 Y158T", "type": "biochemical", "method": "as §1"}, "[21]": {"details": "read-out: Glufosinate‐ammonium IC50"}}, "note": "“Also recorded” adds a separate entry of the source."}
{"smiles": "CP(=O)(O)CCC(N)C(=O)O", "note": "(stereo not shown) [Glufosinate‐ammonium]", "values": [{"measurement": "Glufosinate‐ammonium % Inhibition at saturation 10 000 μM", "setting": "[1]; 10 000 μM", "value": 0, "unit": "%"}, {"measurement": "IC50", "setting": "[1]; [21]", "value": "> 10000", "unit": "µM"}, {"measurement": "tolerance to GFA (visual injury)", "setting": "[2]", "value": "failed to confer tolerance; also recorded: sensitive phenotype"}, {"measurement": "Glufosinate‐ammonium % Inhibition at saturation 10 000 μM", "setting": "[3]; 10 000 μM", "value": 0, "unit": "%"}, {"measurement": "IC50", "setting": "[3]; [21]", "value": "> 10000", "unit": "µM"}, {"measurement": "Resistance index (RI)", "setting": "[4]; IC50 variant / IC50 WT", "value": 0.2}, {"measurement": "IC50", "setting": "[4]; [21]", "value": 4.8, "unit": "µM"}, {"measurement": "Resistance index (RI)", "setting": "[5]; IC50 variant / IC50 WT", "value": 2.5}, {"measurement": "IC50", "setting": "[5]; [21]", "value": 54, "unit": "µM"}, {"measurement": "Resistance index (RI)", "setting": "[6]; IC50 variant / IC50 WT", "value": 11.7}, {"measurement": "IC50", "setting": "[6]; [21]", "value": 254, "unit": "µM"}, {"measurement": "Resistance index (RI)", "setting": "[7]; IC50 variant / IC50 WT", "value": 0.3}, {"measurement": "IC50", "setting": "[7]; [21]", "value": 7.6, "unit": "µM"}, {"measurement": "Glufosinate‐ammonium % Inhibition at saturation 10 000 μM", "setting": "[8]; 10 000 μM", "value": 0, "unit": "%"}, {"measurement": "IC50", "setting": "[8]; [21]", "value": "> 10000", "unit": "µM"}, {"measurement": "Resistance index (RI)", "setting": "[9]; IC50 variant / IC50 WT", "value": 3.2}, {"measurement": "IC50", "setting": "[9]; [21]", "value": 69, "unit": "µM"}, {"measurement": "Glufosinate‐ammonium % Inhibition at saturation 10 000 μM", "setting": "[10]; 10 000 μM", "value": 0, "unit": "%"}, {"measurement": "IC50", "setting": "[10]; [21]", "value": "> 10000", "unit": "µM"}, {"measurement": "IC50", "setting": "[11]", "value": 19, "unit": "µM"}, {"measurement": "Glufosinate‐ammonium % Inhibition at saturation 10 000 μM", "setting": "[12]; 10 000 μM", "value": 0, "unit": "%"}, {"measurement": "IC50", "setting": "[12]; [21]", "value": "> 10000", "unit": "µM"}, {"measurement": "Glufosinate‐ammonium % Inhibition at saturation 10 000 μM", "setting": "[13]; 10 000 μM", "value": 1.3, "unit": "%"}, {"measurement": "IC50", "setting": "[13]; [21]", "value": "> 10000", "unit": "µM"}, {"measurement": "Resistance index (RI)", "setting": "[14]; IC50 variant / IC50 WT", "value": 4.3}, {"measurement": "IC50", "setting": "[14]; [21]", "value": 94, "unit": "µM"}, {"measurement": "Resistance index (RI)", "setting": "[15]; IC50 variant / IC50 WT", "value": 64.6}, {"measurement": "IC50", "setting": "[15]; [21]", "value": 1400, "unit": "µM"}, {"measurement": "Glufosinate‐ammonium % Inhibition at saturation 10 000 μM", "setting": "[16]; 10 000 μM", "value": 9, "unit": "%"}, {"measurement": "IC50", "setting": "[16]; [21]", "value": "> 10000", "unit": "µM"}, {"measurement": "Resistance index (RI)", "setting": "[17]; IC50 variant / IC50 WT", "value": 799.7}, {"measurement": "IC50", "setting": "[17]; read-out: Glufosinate‐ammonium IC50 (converted)", "value": 17400, "unit": "µM"}, {"measurement": "Resistance index (RI)", "setting": "[18]", "value": 0.0}, {"measurement": "Resistance index (RI)", "setting": "[19]; IC50 variant / IC50 WT", "value": 11.5}, {"measurement": "IC50", "setting": "[19]; [21]", "value": 248, "unit": "µM"}, {"measurement": "Resistance index (RI)", "setting": "[20]; IC50 variant / IC50 WT", "value": 3.5}, {"measurement": "IC50", "setting": "[20]; [21]", "value": 76, "unit": "µM"}]}
